Source: patent US11458189B2, “Cytoprotective drugs” (BALMES TRANSPLANTATION, priority 2017, dated 2022)

Tested on: Sprague Dawley rats
Assay: Survival in acute renal failure model (unilateral renal ischemia-reperfusion with contralateral nephrectomy)
Format: in vivo, rat
Conditions: Allopurinol 3 mg/kg single iv injection 60 min before ischemia; up to 7 days after reperfusion; control group 29%
Method: The protocol is similar to the one described by Narayan P et al, Am J Physiol Renal Physiol, 311(2):F352-61, 2016 and was approved by an ethics committee. In summary, general anesthesia is induced in male Sprague Dawley rats (250-300 g) using sodium pentobarbital (60 mg/kg, ip) instead of ketamine/xylazine in the protocol described by Narayan P et al, Am J Physiol Renal Physiol, 311 (2): F352-61, 2016. A skin incision is made on the dorsal surface and the left kidney is exposed by incisions on the flank. The left renal pedicle is then isolated and clamped for 60 minutes using atraumatic vascular clamps. The kidneys are replaced in the abdominal cavity to maintain temperature and the incision is covered with gauze soaked in 0.9% saline. After the ischemia time (60 minutes), the clamps are released to begin reperfusion. Reperfusion is monitored (kidney color change) for 1 to 2 minutes and physiological saline (1 mL) is administered to prevent dehydration. Next, a right kidney nephrectomy is performed and the incisions are closed with sutures. The animals are kept at approximately 37° C. using a thermoregulated system during the operation. Buprenorphine (0.2 mg/kg sc) is administered before the animals are returned to their cages and once a day until 4 days after reperfusion. […]
The compounds Micafungin (0.25 mg/kg), Anidulafungin (0.35 mg/kg) or the combination of the compounds Micafungin (0.25 mg/kg) and Allopurinol (3 mg/kg) are administered solubilized in physiological saline as a single intravenous injection into the tail vein 60 (±15) minutes before the onset of ischemia. The volume of administration of the compounds is determined on the basis of the body weight (2 mL/kg) of each animal. […]
For each experiment the curve of the number of surviving animals versus the number of days post-ischemia-reperfusion (Kaplan-Meier curve) is shown. The x-axis is graduated from the first day =0 to the seventh day =6 The y-axis is graduated from 0% to 100% of the initial population of the analyzed group. […]

SMILES: Oc1ncnc2[nH]ncc12 [Allopurinol]
- Surviving animals at end of Kaplan-Meier curve (% of initial population of the group): 63%
